Data reported in ChEMBL document CHEMBL4699529, “Anti-Inflammatory ent-Kaurane Diterpenoids from Isodon serra” (J Nat Prod, 2020).

Legend:
[1] = Inhibition of LPS-induced NO production in mouse BV-2 cells; format: functional, cell-based
BV-2 = test: Cytotoxicity against mouse BV-2 cells; format: cell-based

IC50 [1] [µM]	Structure (SMILES)	Activity (BV-2)
3.6	CSC(=N)N	Non-Toxic
26.2	C=C1[C@@H]2CC[C@H]3[C@]45CCCC(C)(C)[C@H]4[C@H](OC(C)=O)[C@@](O)(OC5)[C@]3(C2)[C@@H]1OC(C)=O	Non-Toxic
7.3	C=C1[C@@H]2CC[C@H]3[C@]4(C)CCCC(C)(C)[C@H]4[C@H](OC(C)=O)C(=O)[C@]3(C2)[C@@H]1OC(C)=O	Non-Toxic
> 100	CC(=O)O[C@@H]1[C@@]2(CO2)[C@@H]2CC[C@H]3[C@]45CCCC(C)(C)[C@H]4[C@H](OC(C)=O)[C@@](O)(OC5)[C@]13C2	Non-Toxic
15.6	CC(=O)O[C@H]1[C@]2(CO2)[C@@H]2CC[C@H]3[C@]45CCCC(C)(C)[C@H]4[C@H](OC(C)=O)[C@@](O)(OC5)[C@@]31C2	Non-Toxic
> 100	CC(=O)O[C@@H]1[C@@]2(CO2)[C@@H]2CC[C@H]3[C@]45CCCC(C)(C)[C@H]4[C@H](OC(C)=O)[C@@](O)(OC5)[C@]13[C@@H]2O	Non-Toxic
> 100	C=C1[C@@H](OC(C)=O)[C@]23[C@H](O)[C@H]1CC[C@H]2[C@@]12CO[C@]3(O)[C@@H](O)[C@@H]1C(C)(C)CC[C@@H]2OC(C)=O	Non-Toxic
> 100	CC(=O)O[C@H]1CCC(C)(C)[C@@H](CO)[C@@]12COC(=O)[C@@]13C[C@@H](CC[C@H]12)[C@@H](C)C3=O	Non-Toxic
40.1	CC(=O)O[C@@H]1[C@@](O)(CO)[C@@H]2CC[C@H]3[C@]45CCCC(C)(C)[C@H]4[C@H](OC(C)=O)[C@@](O)(OC5)[C@]13C2	Non-Toxic
44.1	CC(=O)O[C@H]1[C@](O)(CO)[C@@H]2CC[C@H]3[C@]45CCCC(C)(C)[C@H]4[C@H](OC(C)=O)[C@@](O)(OC5)[C@]13C2	Non-Toxic
> 60	C=C1[C@@H]2CC[C@H]3[C@]45CCCC(C)(C)[C@H]4[C@H](O)[C@@](O)(OC5)[C@]3(C2)[C@@H]1O	Non-Toxic
